Measured values published in US20120149708A1, “MODULATORS OF VIRAL TRANSCRIPTION, AND METHODS AND COMPOSITIONS THEREWITH” (George Mason University, priority 2010, published 2012).

How the values were obtained:
[1] = test system: HIV-1 (pNL4.3) in promonocytic U937 cells; assay: Reverse transcriptase assay of supernatants, pNL4.3 electroporated cells; assay type: cell-based; conditions: Flavopiridol 200 nm, CR8 100 nm, CR8#13 50 nm, 48 hours
Procedure: (§1) Jurkat T-cell and promonocytic U937 cells were electroporated with 5 μg pNL4.3 followed the next day by drug treatment of Flavopiridol (200 nm), CR8 (100 nm) or CR8#13 (50 nm). Cell supernatants were collected at 48 hours post drug treatment. Viral supernatants (10 μl) were incubated in a 96-well plate with reverse transcriptase (RT) reaction mixture overnight at 37° C., and 10 μl of the reaction mix was spotted on a DEAE Filtermat paper, washed with 5% (w/v) Na2HPO4 followed by water wash, and then dried completely. RT activity was measured in a Betaplate counter.
(§2) For electroporations, Jurkat and U937 cells were resuspended at 3 million cells in 250 μl of RPMI. Five microgram of pNL4-3 was then added to the cell suspension. Cells were pulsed a single time at 210V, 800 μF, and low resistance. Electroporated cells were immediately transferred to RPMI-1640 with L-glutamine and Penicillin/Streptomycin with 10% (v/v) FBS and plated in 6 well plates. Twenty four hours-post electroporation, cells were treated with drugs for additional 48 hrs and harvested for RT analysis. RT assays were performed as described in ((Guendel et al. 2009; Easley et al. 2010).
(§3) The present inventors examined whether Formula I, or Formula II compounds were effective inhibiting viral transcription in cell lines infected with an HIV-1 construct. Thus, Jurkat T-cells and promonocytic U937 cells were transfected with pNL4.3 and then treated with Flavopiridol, CR8 and CR8#13. Similar to monocytes, the Dicer levels are low to undetectable in promonocytic cells (FIG. 6) and was detectable only when these cells had differentiated into macrophages with PMA treatment.
(§4) Following drug treatment cell supernatants were collected and processed for exogenous reverse transcriptase (RT) levels.

[2] = test system: HIV-1 (pNL4.3) in Jurkat T-cells; assay: as above; assay type: cell-based; conditions: Flavopiridol 200 nm, CR8 100 nm, CR8#13 50 nm, 48 hours
Procedure: as §1, §2, §3, §4

3′TAR and 5′TAR microRNA = assay: Poly-A RT-PCR of TAR microRNA in TZM-bl cells with or without TSA; assay type: cell-based, HIV-1
Procedure: RNA was extracted 48 hrs-post drug treatment. 500 ng of RNA from the microRNA-enriched fraction was used to generate cDNA using the Quantimir kit (SBI) in order to poly adenylate small RNA species. RT reactions were performed followed by PCR in which a universal reverse primer was provided by the manufacturer. Specific microRNA forward primers are identical in sequence to the microRNA of interest. PCR products corresponding to the amplified microRNAs were separated in a 3.5% (w/v) agarose gel. The PCR products are at around 67 bp as compared with the Fermentas 1 kb DNA Plus Ladder. Increased levels of 3′TAR microRNA were produced post CR8#13 treatment.
For poly-A RT-PCR detection of microRNAs, 500 ng of RNA from the microRNA-enriched fraction was used to generate cDNA using the Quantimir kit (SBI) according to the manufacturer's protocol. Briefly, small RNA species are poly-adenylated and then reverse transcription reactions are performed with a company-provided RT primer. For PCR, a universal reverse primer is provided by the manufacturer. Specific microRNA forward primers are identical in sequence to the microRNA of interest. PCR products corresponding to the amplified microRNAs were separated in a 3.5% (w/v) agarose gel and quantified using the Kodak 1D software.
To determine whether the cdk inhibitors Flavopiridol, CR8, and CR8#13 increased levels of TAR microRNA in the TSA-treated and control TZM-bl cells total RNA was extracted from both TSA treated and control cells treated with Flavopiridol, CR8, and CR8#13 and processed for RT-PCR detection of microRNAs, specifically, for the presence of 3′TAR and 5′TAR molecules.

HIV-1 LTR-CAT reporter = assay: CAT assay of Tat-mediated transactivation in HCT116 WT and Dicer-/- cells; assay type: cell-based; conditions: HCT116 WT (Dicer) versus Dicer-/-; 48 hrs; Flavopiridol, CR8#13, F07#13 100 nm, 9AA 1000 nm
Procedure: Six hours later, the transfected cells were treated with DMSO, Flavopirodol (100 nm), CR8#13 (100 nm), F07#13 (100 nm), and 9AA (1000 nm). Treated cells were incubated in complete DMEM for 48 hrs at 37° C. Cells were harvested and cell extracts were used for CAT analysis. One tenth the amount of HCT116 Dicer−/−extract compared to HCT116 WT was used for CAT analysis. […] The corresponding bar graphs in A and B show values that represent the percentage of conversion of the [14C] chloramphenicol substrate in the CAT assay.
Various cells lines were transfected with the HIV-1 LTRCAT plasmid and pc-Tat to initiate the LTR transcription, and subsequently subjected to various drug treatments. After 48 hrs, cells were lysed and CAT assays were performed as previously described (Guendel et al, 2009; Van Duyne et al, 2008; Easley et al, 2010).
To evaluate the role on microRNA machinery in inhibition of viral transcription activity, HCT116 colon carcinoma cell lines that either contained a WT Dicer (HCT116 WT) or lacked the Dicer protein (HCT116 Dicer-−/−) were first transfected with the HIV-1 LTR-CAT reporter construct. The HIV-1 LTR transcription was activated with pc-Tat and following incubation for 6 hours was treated with DMSO (negative control), Flavopiridol (positive control), CR8#13, F07#13, or 9AA.
Cells were harvested 48 hrs-post treatment and processed for CAT assays (FIGS. 3A and B). […] Based on this observation the inventors hypothesize that the microRNA machinery, Dicer and Drosha, plays an inhibitory role in HIV-1 transcription.

CN1CC[C@H](c2c(O)cc(O)c3c(=O)cc(-c4ccccc4Cl)oc23)[C@H](O)C1 [Flavopiridol]
RT levels in supernatant [1]: able to decrease RT levels in both cell lines
RT levels in supernatant [2]: able to decrease RT levels in both cell lines
3′ and 5′ TAR microRNA amount (3′TAR and 5′TAR microRNA; TZM-bl cells treated with TSA for 7 days, then drug): higher amounts of both 3′ and 5′ TAR microRNA
3′ TAR microRNA amount (3′TAR and 5′TAR microRNA; non-TSA treated TZM-bl cells, Flavopiridol 50 nm, CR8 100 nm, CR8#13 100 nm): significantly increased amount of the 3′ TAR microRNA
inhibition of viral transcription (CAT) (HIV-1 LTR-CAT reporter): inhibited viral transcription significantly better in cells that contained Dicer
